# Results taken from article PMC10818546, “CYP1-Activation and Anticancer Properties of Synthetic Methoxylated Resveratrol Analogues” (Molecules, 2024).
# Tested on: MCF7
# Experiment: MTT cytotoxicity assay, MCF7 cells (uninduced)
# Assay type: cell-based, human
# Conditions: Homo sapiens, MCF7, 96 h, MTT assay, 96 h incubation, 37 °C, means of quadruplicate; read-out: IC50 MCF7
# Protocol: (§1) The antiproliferative activity of the resveratrol analogues was investigated using a human breast cell line panel, which has been characterised for CYP1 expression in our laboratories. IC50 values for both cis- and trans-isomers were determined using a standard 3-[4,5-dimethylthiazol-2-yl]-2,5-diphenyl tetrazolium bromide (MTT) cell viability assay and are shown in Table 1 (trans-stilbene analogues) and Table 2 (cis-stilbene analogues).
# (§2) MCF7 cells are both ER positive and Ah receptor positive and have been well documented for their CYP1 expression, and it is known that treatment with TCDD elevates CYP1A1 and CYP1B1 expression. The cells were treated with DMSO (0.1%) for 24 h for constitutive expression, whereas for inducible CYP1 expression, the cells were treated with TCDD (10 nM) for 24 h.
# (§3) A standard MTT (3-[4,5-dimethylthiazol-2-yl]-2,5-diphenyl tetrazolium bromide) cell viability assay was employed to evaluate the cytotoxicity of the stilbenes prepared. The MTT assay is a rapid quantitative spectrophotometric method for determining cell growth (viability) due to necrosis or apoptosis in monolayer-cultured cell lines in response to external factors. It is widely employed to evaluate the cytotoxicity of potential medicinal agents.
# (§4) MCF7 cells were grown in RPMI-1640 medium with phenol red and 10% (v/v) heat-inactivated (heated to 56 °C for 45 min) foetal calf serum. MDA-468 cells were grown in RPMI-1640 medium with 10% (v/v) heat-inactivated foetal calf serum and L-glutamine (2 mM) without phenol red. MCF-10A cells were grown in Dulbecco’s modified Eagle’s medium/ Ham’s F-12 medium (1:1) with 5% (v/v) heat-inactivated foetal calf serum, epidermal growth factor (20 ng/mL), insulin ([…]) and hydrocortisone (500 ng/mL). Cells were maintained at 37 °C, 5% CO2/95% air with 100% humidity and passaged every 2–3 days using trypsin EDTA solution (0.25% w/v). Adhered cells at sub confluence were harvested for experimental use.
# (§5) Aliquots of cell suspensions (100 µL at 2 × 10^3 cells per ml) were dispensed into sterile 96-well microtiter flat-bottomed plates. For the MDA468 and MCF10A cell lines, the plates were incubated at 37 °C, 5% CO2/95% air with 100% humidity for 24 h prior to the addition of test compounds. For MCF7 cells, after allowing approximately 4 h for cells to adhere, 100 µL of medium containing TCDD (from 100 mM stock in DMSO) or medium with 0.2% (v/v) DMSO was added to give a final concentration of 10 nM TCDD and 0.1% (v/v) DMSO. After 24 h, the medium was aspirated and replaced with fresh medium (100 µL) before the addition of test compounds.
# (§6) Then, 100 µL aliquots of test compounds were added within 30 min into the wells from a 100 mM stock solution in DMSO and serially diluted to give final concentrations of […], 0.01, 0.003, 0.001 and 0.0003 µM. […] The cells were allowed to grow for 96 h at 5% CO2, 37 °C, to give 80–90% confluence in the control wells, after which 50 µL of 2 mg/mL MTT (final concentration 0.4 mg/mL) in sterile phosphate buffer was added to each well and the plates were further incubated for 2 h. All medium was aspirated and the formazan precipitate generated by viable cells was solubilised by 150 µL of DMSO. All the plates were vortexed and the absorbance at 540 nm was determined using a SpectraMax M5 plate reader (Molecular Devices, Wokingham, UK).
# (§7) Results were expressed as a percentage of the control value versus the negative logarithm of the molar drug concentration range using GraphPad Prism (Version 5.00). Relative toxicities of each compound within each cell line were expressed as 50% of growth inhibition (IC50). All determinations were carried out in quadruplicate.
row,Structure (SMILES),IC50 [µM]
1,COc1ccc(/C=C/c2ccc(OC)cc2)cc1 [DMU205],28

# Same assay, conditions: Homo sapiens, MCF7, 96 h, read-out: IC50 MCF7
row,Structure (SMILES),IC50 [µM]
1,COc1ccc(/C=C\c2cc(OC)c(OC)c(OC)c2)cc1 [DMU213],2.5

# Same assay, conditions: Homo sapiens, MCF7; MTT assay, 96 h incubation, 37 °C, means of quadruplicate; read-out: IC50 MCF7
row,Structure (SMILES),IC50 [µM]
1,COc1cc(/C=C/c2ccc(Cl)cc2)cc(OC)c1OC [DMU555],100
2,COc1cc(/C=C\c2ccc(Br)cc2)cc(OC)c1OC [DMU558],0.08
3,COc1ccc(/C=C\c2ccc(OC)c(OC)c2OC)cc1 [DMU548],8
4,COc1ccc(/C=C\c2cccc(OC)c2)cc1 [DMU241C],29
5,CCOc1ccc(/C=C\c2cc(OC)c(OC)c(OC)c2)cc1 [DMU261],0.04
6,COc1ccc(/C=C/c2cccc(OC)c2)cc1 [DMU241],27
7,CCOc1ccc(/C=C/c2cc(OC)c(OC)c(OC)c2)cc1 [DMU260],5
8,COc1cc(/C=C/c2ccc(OC)c3ccccc23)cc(OC)c1OC [DMU569],30
9,COc1cc(/C=C/c2ccc(Br)cc2)cc(OC)c1OC [DMU557],7
10,COc1cc(/C=C\c2ccc3c(c2)OCO3)cc(OC)c1OC [DMU299],0.05
11,COc1cc(/C=C\c2ccc(Cl)cc2)cc(OC)c1OC [DMU556],0.8
12,COc1ccc(/C=C/c2ccc(OC)c(OC)c2OC)cc1 [DMU547],80

# Tested on: MCF7 (TCDD)
# Experiment: MTT cytotoxicity assay, TCDD-induced MCF7 cells
# Assay type: cell-based, human
# Conditions: Homo sapiens, MCF7, MTT assay, 96 h incubation; cells induced with 10 nM TCDD for 24 h; read-out: IC50 MCF7 (TCDD)
# Protocol: as §1, §2, §3, §4, §5, §6, §7
row,Structure (SMILES),IC50 [µM]
1,COc1cc(/C=C/c2ccc(Cl)cc2)cc(OC)c1OC [DMU555],100
2,COc1cc(/C=C\c2ccc(Br)cc2)cc(OC)c1OC [DMU558],0.05
3,COc1ccc(/C=C\c2ccc(OC)c(OC)c2OC)cc1 [DMU548],7.1
4,COc1ccc(/C=C\c2cccc(OC)c2)cc1 [DMU241C],26
5,CCOc1ccc(/C=C\c2cc(OC)c(OC)c(OC)c2)cc1 [DMU261],0.13
6,COc1ccc(/C=C/c2cccc(OC)c2)cc1 [DMU241],24
7,CCOc1ccc(/C=C/c2cc(OC)c(OC)c(OC)c2)cc1 [DMU260],5
8,COc1cc(/C=C/c2ccc(OC)c3ccccc23)cc(OC)c1OC [DMU569],8.6
9,COc1cc(/C=C/c2ccc(Br)cc2)cc(OC)c1OC [DMU557],8
10,COc1cc(/C=C\c2ccc3c(c2)OCO3)cc(OC)c1OC [DMU299],0.05
11,COc1ccc(/C=C/c2ccc(OC)cc2)cc1 [DMU205],28
12,COc1cc(/C=C\c2ccc(Cl)cc2)cc(OC)c1OC [DMU556],0.8
13,COc1ccc(/C=C/c2ccc(OC)c(OC)c2OC)cc1 [DMU547],1

# Same assay, conditions: Homo sapiens, MCF7, read-out: IC50 MCF7 (TCDD)
row,Structure (SMILES),IC50 [µM]
1,COc1ccc(/C=C\c2cc(OC)c(OC)c(OC)c2)cc1 [DMU213],0.44

# Same assay, conditions: ratio of IC50 values
row,Structure (SMILES),AF = activation factor = IC50 MCF7/MCF7 (TCDD)
1,CCOc1ccc(/C=C/c2cc(OC)c(OC)c(OC)c2)cc1 [DMU260],one
2,COc1cc(/C=C\c2ccc3c(c2)OCO3)cc(OC)c1OC [DMU299],one

# Tested on: MCF10A
# Experiment: MTT cytotoxicity assay, MCF10A non-tumour control cells
# Assay type: cell-based
# Conditions: Homo sapiens, MCF-10A, 96 h, MTT assay, 96 h incubation, non-tumour control cells; read-out: IC50 MCF10A
# Protocol: as §1
# MCF10A cells are non-tumourigenic human mammary epithelial in origin which have been spontaneously immortalised without chemical intervention. CYP1 activity in MCF10A cells is negligible. […] Thus, MCF10A cell line is commonly used as a control in cytotoxicity assays.
# as §3, §4, §5, §6, §7
row,Structure (SMILES),IC50 [µM]
1,COc1ccc(/C=C/c2ccc(OC)cc2)cc1 [DMU205],100

# Same assay, conditions: Homo sapiens, MCF-10A, 96 h, read-out: IC50 MCF10A
row,Structure (SMILES),IC50 [µM]
1,COc1ccc(/C=C\c2cc(OC)c(OC)c(OC)c2)cc1 [DMU213],2

# Same assay, conditions: Homo sapiens, MCF-10A; MTT assay, 96 h incubation, non-tumour control cells; read-out: IC50 MCF10A
row,Structure (SMILES),IC50 [µM]
1,COc1cc(/C=C/c2ccc(Cl)cc2)cc(OC)c1OC [DMU555],8
2,COc1cc(/C=C\c2ccc(Br)cc2)cc(OC)c1OC [DMU558],0.05
3,COc1ccc(/C=C\c2ccc(OC)c(OC)c2OC)cc1 [DMU548],100
4,COc1ccc(/C=C\c2cccc(OC)c2)cc1 [DMU241C],> 100
5,CCOc1ccc(/C=C\c2cc(OC)c(OC)c(OC)c2)cc1 [DMU261],0.06
6,COc1ccc(/C=C/c2cccc(OC)c2)cc1 [DMU241],> 100
7,CCOc1ccc(/C=C/c2cc(OC)c(OC)c(OC)c2)cc1 [DMU260],3.7
8,COc1cc(/C=C/c2ccc(OC)c3ccccc23)cc(OC)c1OC [DMU569],40
9,COc1cc(/C=C/c2ccc(Br)cc2)cc(OC)c1OC [DMU557],20
10,COc1cc(/C=C\c2ccc3c(c2)OCO3)cc(OC)c1OC [DMU299],20
11,COc1cc(/C=C\c2ccc(Cl)cc2)cc(OC)c1OC [DMU556],35
12,COc1ccc(/C=C/c2ccc(OC)c(OC)c2OC)cc1 [DMU547],20

# Tested on: MDA468
# Experiment: MTT cytotoxicity assay, MDA468 cells
# Assay type: cell-based, human
# Conditions: not given
# Protocol: as §1
# MDA468 cells represent an aggressive multi-drug-resistant tumour type and are ER negative but are aryl hydrocarbon (Ah) receptor positive in the presence of TCDD [46].
# as §3, §4, §5, §6, §7
row,Structure (SMILES),fold less toxic to MDA-468 compared to DMU212 [fold]
1,COc1ccc(/C=C\c2cc(OC)c(OC)c(OC)c2)cc1 [DMU213],500

# Same assay, conditions: Homo sapiens, 96 h, read-out: IC50 MDA468
row,Structure (SMILES),IC50 [µM]
1,COc1ccc(/C=C\c2cc(OC)c(OC)c(OC)c2)cc1 [DMU213],0.5

# Same assay, conditions: Homo sapiens; MTT assay, 96 h incubation; read-out: IC50 MDA468
row,Structure (SMILES),IC50 [µM]
1,COc1cc(/C=C/c2ccc(Cl)cc2)cc(OC)c1OC [DMU555],12
2,COc1cc(/C=C\c2ccc(Br)cc2)cc(OC)c1OC [DMU558],0.04
3,COc1ccc(/C=C\c2ccc(OC)c(OC)c2OC)cc1 [DMU548],30
4,COc1ccc(/C=C\c2cccc(OC)c2)cc1 [DMU241C],> 100
5,CCOc1ccc(/C=C\c2cc(OC)c(OC)c(OC)c2)cc1 [DMU261],0.07
6,COc1ccc(/C=C/c2cccc(OC)c2)cc1 [DMU241],> 100
7,CCOc1ccc(/C=C/c2cc(OC)c(OC)c(OC)c2)cc1 [DMU260],1.8
8,COc1cc(/C=C/c2ccc(OC)c3ccccc23)cc(OC)c1OC [DMU569],4.5
9,COc1cc(/C=C/c2ccc(Br)cc2)cc(OC)c1OC [DMU557],7
10,COc1cc(/C=C\c2ccc3c(c2)OCO3)cc(OC)c1OC [DMU299],20
11,COc1ccc(/C=C/c2ccc(OC)cc2)cc1 [DMU205],100
12,COc1cc(/C=C\c2ccc(Cl)cc2)cc(OC)c1OC [DMU556],7
13,COc1ccc(/C=C/c2ccc(OC)c(OC)c2OC)cc1 [DMU547],4.5

# Same assay, conditions: ratio of IC50 values
row,Structure (SMILES),TS = tumour selectivity = IC50 MCF10A/IC50 MDA468
1,COc1cc(/C=C/c2ccc(Cl)cc2)cc(OC)c1OC [DMU555],0.7
2,COc1cc(/C=C\c2ccc(Br)cc2)cc(OC)c1OC [DMU558],1
3,CCOc1ccc(/C=C\c2cc(OC)c(OC)c(OC)c2)cc1 [DMU261],0.9
4,COc1ccc(/C=C\c2cc(OC)c(OC)c(OC)c2)cc1 [DMU213],four
5,CCOc1ccc(/C=C/c2cc(OC)c(OC)c(OC)c2)cc1 [DMU260],two
6,COc1cc(/C=C/c2ccc(OC)c3ccccc23)cc(OC)c1OC [DMU569],nine
7,COc1cc(/C=C/c2ccc(Br)cc2)cc(OC)c1OC [DMU557],3
8,COc1cc(/C=C\c2ccc3c(c2)OCO3)cc(OC)c1OC [DMU299],one
9,COc1ccc(/C=C/c2ccc(OC)cc2)cc1 [DMU205],1
10,COc1cc(/C=C\c2ccc(Cl)cc2)cc(OC)c1OC [DMU556],5
11,COc1ccc(/C=C/c2ccc(OC)c(OC)c2OC)cc1 [DMU547],4

# Same assay, conditions: ratio of IC50 values; listed as 213
row,Structure (SMILES),TS = tumour selectivity = IC50 MCF10A/IC50 MDA468
1,COc1ccc(/C=C\c2cc(OC)c(OC)c(OC)c2)cc1 [DMU213],4

# Same assay, conditions: ratio of IC50 values; listed as 260
row,Structure (SMILES),TS = tumour selectivity = IC50 MCF10A/IC50 MDA468
1,CCOc1ccc(/C=C/c2cc(OC)c(OC)c(OC)c2)cc1 [DMU260],2

# Same assay, conditions: ratio of IC50 values; listed as 299
row,Structure (SMILES),TS = tumour selectivity = IC50 MCF10A/IC50 MDA468
1,COc1cc(/C=C\c2ccc3c(c2)OCO3)cc(OC)c1OC [DMU299],1

# Same assay, conditions: ratio of IC50 values; listed as 569
row,Structure (SMILES),TS = tumour selectivity = IC50 MCF10A/IC50 MDA468
1,COc1cc(/C=C/c2ccc(OC)c3ccccc23)cc(OC)c1OC [DMU569],9
